From US4499091A, “1-Amino (or substituted amino)-1,4-dihydro-4-oxo-6-fluoro-7-heterylquinoline-3-carboxylic acids and their use as antibacterial agents” (Sterling Drug Inc., priority 1983, dated 1985)
In brackets after ≈: the same amount, converted by molar mass. Read-outs that look alike come from different tables or passages of the source.

How the values were obtained:
[1] = system: Streptococcus pyogenes C203; experiment: in vitro antibacterial activity, serial dilution (MIC); type: cell-based; details: 18-20 hours static incubation, read-out: Minimal Inhibitory Concentration (MIC)
Experimental: (§1) The in vitro antibacterial activity of the compounds of the invention was determined by conventional serial dilution procedures. Bacterial cultures were grown in tryptose phosphate broth or brain heart infusion broth (containing heat-inactivated normal horse serum for tests with S. pyogenes) overnight at 37° C. and subsequently diluted in double strength broth to provide bacterial inocula of about 2×10^5 cells/ml. Aqueous solutions of the compounds of the invention were prepared by dissolving the free acid form in 0.5N sodium hydroxide. The solutions were diluted with sterile distilled water to 1000 mcg/ml of compound in terms of the free acid. Serial two-fold dilutions of the compound stock solutions were prepared in water and 0.5 ml of each dilution was transferred to sets of tubes, one set for each bacterial inoculum.

[2] = system: Staphylococcus aureus Smith; experiment: as above; type: cell-based; details: 18-20 hours static incubation, read-out: Minimal Inhibitory Concentration (MIC)
Experimental: as §1

[3] = system: Proteus mirabilis MGH-1; experiment: as above; type: cell-based; details: MGH1, 18-20 hours static incubation, read-out: Minimal Inhibitory Concentration (MIC)
Experimental: as §1

[4] = system: Klebsiella pneumoniae 39645; experiment: as above; type: cell-based; details: 18-20 hours static incubation, read-out: Minimal Inhibitory Concentration (MIC)
Experimental: as §1

[5] = system: Pseudomonas aeruginosa MGH-2; experiment: as above; type: cell-based; details: MGH2, 18-20 hours static incubation, read-out: Minimal Inhibitory Concentration (MIC)
Experimental: as §1

[6] = system: Escherichia coli Vogel; experiment: as above; type: cell-based; details: 18-20 hours static incubation, read-out: Minimal Inhibitory Concentration (MIC)
Experimental: as §1

[7] = system: Escherichia coli Vogel; experiment: in vivo antibacterial activity in mice infected with E. coli (PD50); design: species or system mouse (female) infected with Escherichia coli; details: sc, 168 h, read-out: Protective Dose (PD50)
Experimental: (§2) The in vivo antibacterial activity of the compounds of the invention was determined in female mice, 18-20 grams each, by the following procedure:
(§3) Aqueous solutions of the compounds to be tested were prepared by dissolving the free acid form in dilute sodium hydroxide and diluting the solution with distilled water to be desired volume.
(§4) Cultures of Escherichia coli Vogel prepared in brain heart infusion broth, cultures of Klebsiella pneumoniae 39645 grown in tryptose phosphate broth with 5% rabbit serum diluted in the same broth and cultures of Pseudomonas aeruginosa MGH-2 grown on brain heart infusion agar and suspended in physiological saline, were used to infect the mice as follows:
Mice infected with E. coli were medicated once (0.5 ml) one-half hour post infection, the test compound being administered by either the subcutaneous (s.c.) or oral (p.o.) route. Deaths were recorded daily for seven days.
(§5) Groups of ten animals each for four or five dose levels were thus treated and the number of survivors in each group recorded. The fifty percent protective dose values (PD50) were then calculated.

[8] = system: Klebsiella pneumoniae 39645; experiment: in vivo antibacterial activity in mice infected with K. pneumoniae (PD50); design: species or system mouse (female) infected with Klebsiella pneumoniae; details: Klebsiella pneumoniae, 39645, sc, 336 h, read-out: Protective Dose (PD50)
Experimental: as §2, §3, §4
K. pneumoniae: mice were inoculated intramuscularly in the right hind leg with 0.2 ml of the bacterial test inoculum (2.05×10^4 cells/ml).
Mice infected with K. pneumoniae were medicated at the following times: seventeen hours and one hour preinfection, six hours postinfection and twice a day for the next three days. The test compound was administered by both subcutaneous (0.2 ml) and oral (0.5 ml) routes. Deaths were recorded daily for fourteen days.
as §5

[9] = system: Proteus vulgaris 9920; experiment: in vitro antibacterial activity, serial dilution (MIC); type: cell-based; details: 18-20 hours static incubation, read-out: Minimal Inhibitory Concentration (MIC)
Experimental: as §1

[10] = system: Pseudomonas aeruginosa MGH-2; experiment: in vivo antibacterial activity in mice infected with P. aeruginosa (PD50); design: species or system mouse (female) infected with Pseudomonas aeruginosa; details: MGH2, sc, 168 h, read-out: Protective Dose (PD50)
Experimental: as §2, §3, §4
Deaths were recorded daily for seven days.
as §5

[11] = mouse, E. coli, s.c., once one-half hour post infection, 7 days
[12] = mouse, K. pneumoniae, s.c., pre- and postinfection, 14 days

Row | SMILES | MIC [1] | MIC [2] | MIC [3] | MIC [4] | MIC [5] | MIC [6] | ED50 [7, 11] | ED50 [8, 12] | MIC [9] | ED50 [10] | ED50 [7] | ED50 [8]
1 | CNn1cc(C(=O)O)c(=O)c2cc(F)c(N3CCC(O)C3)cc21 (stereo not shown) [Example 22, 6-Fluoro-1,4-dihydro-7-(3-hydroxy-1-pyrrolidinyl)-1-methylamino-4-oxo-3-quinolinecarboxylic acid] | 16 µg/mL (≈ 49.8 µM) | 1 µg/mL (≈ 3.11 µM) | 1 µg/mL (≈ 3.11 µM) | 4 µg/mL (≈ 12.4 µM) | 4 µg/mL (≈ 12.4 µM) | 1 µg/mL (≈ 3.11 µM) | 10.4 mg/kg | 118 mg/kg | – | – | – | –
2 | CNn1cc(C(=O)O)c(=O)c2cc(F)c(N3CCNCC3)cc21 [Example 4, 6-Fluoro-1,4-dihydro-1-methylamino-4-oxo-7-(1-piperazinyl)-3-quinolinecarboxylic acid] | – | 2 µg/mL (≈ 6.24 µM) | 0.5 µg/mL (≈ 1.56 µM) | 1 µg/mL (≈ 3.12 µM) | 1 µg/mL (≈ 3.12 µM) | 1 µg/mL (≈ 3.12 µM) | – | – | 0.25 µg/mL (≈ 0.78 µM) | 0.46 mg/kg | 0.32 mg/kg | 6.25 mg/kg
3 | CNn1cc(C(=O)O)c(=O)c2cc(F)c(N3CCN(C(C)C)CC3)cc21 [Example 10, 6-Fluoro-1,4-dihydro-1-methylamino-7-[4-(1-methylethyl)-1-piperazinyl]-4-oxo-3-quinolinecarboxylic acid] | 4 µg/mL (≈ 11 µM) | 2 µg/mL (≈ 5.52 µM) | 4 µg/mL (≈ 11 µM) | 0.5 µg/mL (≈ 1.38 µM) | 8 µg/mL (≈ 22.1 µM) | 0.5 µg/mL (≈ 1.38 µM) | 2.7 mg/kg | 50 mg/kg | – | – | – | –
4 | CCCNn1cc(C(=O)O)c(=O)c2cc(F)c(N3CCN(C)CC3)cc21 [Example 6, 6-Fluoro-1,4-dihydro-7-(4-methyl-1-piperazinyl)-4-oxo-1-propylamino-3-quinolinecarboxylic acid] | 125 µg/mL (≈ 345 µM) | 15.6 µg/mL (≈ 43 µM) | 31.3 µg/mL (≈ 86.4 µM) | 2 µg/mL (≈ 5.52 µM) | 31.3 µg/mL (≈ 86.4 µM) | 2 µg/mL (≈ 5.52 µM) | 32 mg/kg | > 200 mg/kg | 2 µg/mL (≈ 5.52 µM) | – | – | –
5 | CNn1cc(C(=O)O)c(=O)c2cc(F)c(N3CCCN(C)CC3)cc21 [Example 20, 6-Fluoro-7-(hexahydro-4-methyl-1H-1,4-diazapin-1-yl)-1,4-dihydro-1-methylamino-4-oxo-3-quinolinecarboxylic acid] | 32 µg/mL (≈ 91.9 µM) | 4 µg/mL (≈ 11.5 µM) | 2 µg/mL (≈ 5.74 µM) | 4 µg/mL (≈ 11.5 µM) | 4 µg/mL (≈ 11.5 µM) | 2 µg/mL (≈ 5.74 µM) | 3.6 mg/kg | 33 mg/kg | – | – | – | –
6 | CCNn1cc(C(=O)O)c(=O)c2cc(F)c(Cl)cc21 [7-Chloro-1-ethylamino-6-fluoro-1,4-dihydro-4-oxo-3-quinolinecarboxylic acid] | 31.3 µg/mL (≈ 110 µM) | 15.6 µg/mL (≈ 54.8 µM) | 3.9 µg/mL (≈ 13.7 µM) | 3.9 µg/mL (≈ 13.7 µM) | 31.3 µg/mL (≈ 110 µM) | 1.95 µg/mL (≈ 6.85 µM) | – | – | 0.25 µg/mL (≈ 0.878 µM) | – | – | –
